The record followed here is US9834525B2, “Inhibitors of paxillin function and related compositions and methods” (UNIVERSITY OF TENNESSEE RESEARCH FOUNDATION, priority 2015, dated 2017).

Entries after “also recorded” stand apart in the source; their conditions may differ.

One assay relates to AKT in OMM 2.5 cells. The assay is described as follows: Western blot of pAKT/AKT in HGF-stimulated metastatic UM cells. The class given is cell-based, human. Particulars: HGF-stimulated OMM 2.5 cells, harvest after 4 hrs. As for the experimental part: REC, Mel 270, OMM 2.5 under Hepatocyte Growth Factor (HGF) or Vascular Endothelial Growth Factor (VEGF) stimulation conditions: Cell lysates were collected in RIPA lysis buffer (50 mM Tris-HCl, pH 7.4, 150 mM NaCl, 2 mM EDTA, 1% Nonidet P-40, 0.1% SDS) with protease 1× inhibitor cocktail (Roche; Indianapolis, Ind.). Lysates were kept on ice and centrifuged at 10,000×g×10 minutes and total protein was measured using the BCA assay (Pierce, Rockford, Ill.). Protein samples were mixed with 4×LDS loading buffer with 2.5% 2-mercaptoethanol (Sigma-Aldrich), heated to 70° C. for 10 minutes, and loaded on NuPAGE 4-12% Bis-Tris gel (Invitrogen, Carlsbad, Calif.). Immunoblotting was performed with nitrocellulose membranes (Bio-Rad, Hercules, Calif.) at 170-mA start and 110-mA end at 25 V for two hours in NuPAGE transfer buffer (Invitrogen) containing 20% methanol. […] Dual-channel infrared scan and quantitation of immunoblots were conducted using the ODYSSEY Sa infrared imaging system with Image Studio (Ver. 3.1.4) (LI-COR).
FIG. 16: Paxillin inhibition reduced pAKT signaling in metastatic UM cells. A, Representative Western Blot of total and phosphorylated paxillin in metastatic UM cells, as in FIG. 4A-B. B, Quantitation from n=3. […] Lysates were measured by Western Blot. […]

The next assay deals with murine OIR model. The assay is described as follows: Murine OIR model, retinal whole-mounts. The format is in vivo, mouse. Particulars: daily ocular administration 0.5 mg/kg or 5 mg/kg in ME, P12 to P17, vs vehicle. From the text: Topical delivery of compound (II-4) using an ocular ME was chosen for several reasons. First, intravitreal injection is technically challenging and, unlike intraocular delivery of proteins, is unnecessary for delivery of small molecules. […] The murine OIR model was used to examine the effect of compound (II-4) on the natural history of VEGF-induced proliferative retinopathy. Briefly, pups were exposed to 75% oxygen at post-natal day 7 (P7) for 5 days and then returned to normal oxygen at P12. Mice received daily ocular administration of either compound (II-4) (0.5 mg/kg or 5 mg/kg) or vehicle (ME) from P12 to P17. Eyes were enucleated at P17 and retinal whole-mounts stained for endothelial cells followed by quantification of avascular area and vascular tuft formation.
FIG. 22: Oxygen-Induced Retinopathy (OIR). (A:) P17 retinal whole-mounts were stained for endothelial cells. […] Data represent mean (±SD). N=8-14/group. […] (C): Quantitation of panel A neovascular area. (D): Quantitation of panel A avascular area. (E): Quantitation of panel B total paxillin.

For the next assay, the system named is 92.1 cell line. Put plainly: CFSE cellular proliferation, 92.1. The format is cell-based, human. Particulars: 96 hrs culture, 1 μM for the last 24 hrs. As for the experimental part:
(§1) Harvested cells were resuspended at a concentration of 1.0×10^6 cells/mL in warm PBS/1% FBS. Cells were labeled with […] (Invitrogen) for 5 minutes at 37° C. then quenched on cold growth media (final volume 20 mL) for 10 minutes, twice. Cultured unlabeled cells were used as controls.
(§2) To test the hypothesis that inhibition of paxillin will reduce cellular proliferation UM cell lines were labeled with carboxyfluorescein succunimidyl ester (CFSE), a cell tracking dye, and cultured for 96 hrs. A group of cells received treatment with compound (II-4) for the last 24 hours. Maximum CFSE fluorescence was controlled using labeled cells prior culture −0 hr. Negative control was established using unlabeled cells cultured in parallel. Histograms in FIG. 15D show 96 hrs cultured cells divided with a 1-log shift or reduction in CFSE intensity. […] Cell proliferation was not affected in the 92.1 cell line. […]
(§3) FIG. 15: The paxillin inhibitor Compound (II-4) selectively affects cellular proliferation of primary UM cells that become metastatic. […] Unlabeled cells were used to control fluorescence. […] B. Quantitation of experiment +/−SD including primary UM that becomes metastatic (Mel 270), metastatic (OMM 2.1) and primary (92.1) UM cells. *P=0.0007 and **P=0.0005. […] Quantitation of VLA-4 protein levels +/−SD from n=3. […]

Assay [1] has as its target T1, serotonin receptor 5-HT2B (Homo sapiens, UniProt P41595).
T1 construct: purchased Eurofins, Cerep Panlabs ExpresS Profile
Put plainly: Off-target counter screening, ExpresS Profile. The format is binding. Particulars: 10 μM. How it is done:
(§4) Counter-screen assays to determine “off-target” effects are conducted at an early stage to mitigate toxicological risk of new chemical entities. Compound (II-4) (10 μM) counter screening was conducted against a wide variety of target receptors, enzymes, and ion channels using a serum-free cell-based assay, ExpresS Profile (Eurofins, Cerep Panlabs). Inhibition >50% is considered a “positive” interaction.

Assay [2] deals with T2, melatonin-1 receptor (MT-1) (Homo sapiens, UniProt P48039).
T2 construct: purchased Eurofins, Cerep Panlabs ExpresS Profile
T2 sequence (P48039 whole entry): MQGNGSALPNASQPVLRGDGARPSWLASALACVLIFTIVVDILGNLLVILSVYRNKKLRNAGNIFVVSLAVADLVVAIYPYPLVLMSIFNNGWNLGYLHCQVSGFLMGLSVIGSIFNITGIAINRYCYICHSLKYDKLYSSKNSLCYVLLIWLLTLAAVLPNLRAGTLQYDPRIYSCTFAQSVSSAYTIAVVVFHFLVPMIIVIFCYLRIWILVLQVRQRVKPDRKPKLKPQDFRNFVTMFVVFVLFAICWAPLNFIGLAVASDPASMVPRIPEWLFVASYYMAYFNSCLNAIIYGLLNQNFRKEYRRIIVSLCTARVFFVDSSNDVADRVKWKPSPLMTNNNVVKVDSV
Put plainly: Off-target counter screening, ExpresS Profile. The class given is binding. Particulars: 10 μM. As for the experimental part:
as §4
(In general: The purpose of a counterscreen is to sort out artefacts and off-target activity.)

The next assay has as its system Mel 270 primary-UM cells. Put plainly: CFSE cellular proliferation, Mel 270. The class given is cell-based, human. As to conditions: 96 hrs culture, 1 μM for the last 24 hrs. As for the experimental part: as §1, §2, §3

T1 sequence (P41595 whole entry): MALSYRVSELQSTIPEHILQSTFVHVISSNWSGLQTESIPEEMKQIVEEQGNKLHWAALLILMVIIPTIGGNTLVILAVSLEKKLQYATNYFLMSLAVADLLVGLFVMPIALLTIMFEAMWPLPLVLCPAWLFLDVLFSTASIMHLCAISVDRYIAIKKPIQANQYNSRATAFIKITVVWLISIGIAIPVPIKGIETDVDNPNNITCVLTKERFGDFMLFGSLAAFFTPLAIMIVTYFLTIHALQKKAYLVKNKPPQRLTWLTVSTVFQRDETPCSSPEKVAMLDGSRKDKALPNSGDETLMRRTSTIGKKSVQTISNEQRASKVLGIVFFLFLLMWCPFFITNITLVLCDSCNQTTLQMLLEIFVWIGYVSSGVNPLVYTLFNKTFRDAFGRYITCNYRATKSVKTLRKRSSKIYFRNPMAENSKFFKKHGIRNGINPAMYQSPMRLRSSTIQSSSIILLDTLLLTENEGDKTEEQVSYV

Consider `COc1cc(C2OC(=O)Nc3c2ccc2ccccc32)cc(OC)c1OC` (stereo not shown) [compound II-4], for which the pAKT/AKT result in the assay on AKT in OMM 2.5 cells is “significant reduction”. Besides, in the assay with murine OIR model, the “hypoxia-induced neovascularization (neovascular area)” value was “striking inhibition; also recorded: reductions in NV”. Also, the retinal avascular area result in the assay with murine OIR model is “modest increase; also recorded: increases in AV”. In addition, the “cell proliferation (CFSE)” value in the assay with 92.1 cell line is “not affected”; in the assay on Mel 270 primary-UM cells it was “caused a reduction in cell proliferation”. The “off-target interaction, 5-HT2B (inhibition >50% considered positive)” value in assay [1] is “possible binding targets”. For the same compound, in assay [2], the “off-target interaction, MT-1 (inhibition >50% considered positive)” value is “possible binding targets”.
